Assay results published in patent US20240140991A1, “ANTIBIOTIC NATURAL PRODUCT ANALOGUES” (THE QUEEN'S UNIVERSITY OF BELFAST, priority 2021, published 2024).
≈ marks a conversion by molar mass, not a printed value. Positions of bridges follow the written chain, without caps; N, C: chain ends. Non-standard residues stand in square brackets, D forms with d. Residues, ends and D or L forms follow the SMILES beside them. ξ: configuration not given here. *: point of attachment. Octanoyl(7-Me) = CC(C)CCCCCC(=O)*; Hexanoyl(4ξ-Me) = CCC(C)CCC(=O)*; dOrn = NCCC[C@@H](N)C(=O)O; Orn = NCCC[C@H](N)C(=O)O; Dap = NC[C@H](N)C(=O)O

Legend:
E. coli ATCC 25922 MCR-1 = format: cell-based, Escherichia coli; details: E. coli ATCC 25922 MCR-1 (colistin resistant)
Protocol: (§1) Minimum inhibitory concentration (MIC) was determined by broth microdilution according to CLSI guidelines. Blood agar plates were inoculated with glycerol stocks of Escherichia coli ATCC 25922, E. coli ATCC 25922 MCR-1, E. coli MCR-1 (clinical isolate from Utrecht Medical Center, NL), E. coli EQAS MCR-2 (clinical isolate from Wageningen University and Research, NL), Kiebsielia pneumoniae ATCC 11228, K. pneumoniae ATCC 13883, K. pneumonia 2048 (clinical isolate from Vrije Universiteit Amsterdam Medical Center, NL), K. pneumonia JS-123 (clinical isolate from Utrecht Medical Center, NL), Acinetobacter baumannii ATCC 17961, A. baumannil ATCC 17978, A. baumannii 2018-006 (clinical isolate from Rijksinstituut voor Volksgezondheid en Milieu, NL), A. baumannii MDR (clinical isolate from Vrije Universiteit Amsterdam Medical Center, NL), Pseudomonas aeruginosa ATCC 27853, P. aeruginosa PAO1, P. aeruginosa NRZ-03961 (Reference strain from Das Nationale Referenzzentrum für gramnegative Krankenhauserreger, DE), P. aeruginosa M-120 (clinical isolate from Leiden University Medical Center, NL) and Staphylococcus aureus USA300 (clinical isolate from Texas Children's Hospitalm, USA). E. coli 25922 MCR1 was grown on LB agar supplemented with kanamycin. The inoculated agar plates were then incubated for 16 hours at 37° C. Individually grown colonies were subsequently used to inoculate 3 mL aliquots of TSB that were then incubated at 37° C. with shaking at 220 rpm. In parallel, the compounds to be assessed were serially diluted with Mueller-Hinton broth (MHB) in polypropylene 96-well plates (50 μL in each well). Once the OD600 of the bacterial suspensions reached 0.5, the bacteria were diluted with MHB (final concentration 2×10^5 CFU mL^−1) and added to the microplates containing the test compounds (50 μL to each well, final volume: 100 μL). The well-plates were sealed with an adhesive membrane and after 16 hours of incubation at 37° C. with shaking at 220 rpm the wells were visually inspected for bacterial growth. MIC values were defined as the lowest concentration of the compound that prevented visible growth of bacteria.
(§2) In the table above, “MCR” denotes that one of the MCR family of genes, which confers colistin resistance, is present in the bacterial strain. Thus, E. coli ATCC 25922 MCR-1, E. coli MCR-1 and E. coli EQAS MCR-2 are each colistin resistant. […] Therefore, laterocidamide may overcome some of the challenges faced due to antibiotic resistance.

E. coli MCR-1 = format: cell-based, Escherichia coli; details: E. coli MCR-1 clinical isolate (colistin resistant)
Protocol: as §1, §2

A. baumannii MDR = format: cell-based, Acinetobacter baumannii; details: A. baumannii MDR clinical isolate
Protocol: as §1

[1] = tested on: Acinetobacter baumannii ATCC 17961; format: cell-based; details: ATCC 17961
How it was run: (§3)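 Broth microdilution in MHB per CLSI; inoculum 2×10^5 CFU mL^−1 from log-phase TSB cultures at OD600 0.5. Plates incubated 16 hours at 37° C with shaking at 220 rpm. MIC is the lowest concentration preventing visible growth.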

[2] = tested on: Escherichia coli ATCC 25922; format: cell-based; details: ATCC 25922
How it was run: as §3

[3] = tested on: Pseudomonas aeruginosa ATCC 27853; format: cell-based; details: ATCC 27853
How it was run: as §3

[4] = tested on: Staphylococcus aureus USA300; format: cell-based; details: USA300
How it was run: as §3

E. coli EQAS MCR-2 = format: cell-based, Escherichia coli; details: E. coli EQAS MCR-2 clinical isolate (colistin resistant)
Protocol: as §1, §2

K. pneumoniae 2048 = format: cell-based, Klebsiella pneumoniae; details: 2048
Protocol: as §1

K. pneumoniae ATCC 11228 = format: cell-based, Klebsiella pneumoniae; details: ATCC 11228
Protocol: as §1

K. pneumoniae ATCC 13883 = format: cell-based, Klebsiella pneumoniae; details: ATCC 13883
Protocol: as §1

K. pneumoniae JS-123 = format: cell-based, Klebsiella pneumoniae; details: JS-123
Protocol: as §1

A. baumannii 2018-006 = format: cell-based, Acinetobacter baumannii; details: 2018-006
Protocol: as §1

A. baumannii ATCC 17978 = format: cell-based, Acinetobacter baumannii; details: ATCC 17978
Protocol: as §1

P. aeruginosa M-120 = format: cell-based, Pseudomonas aeruginosa; details: M-120
Protocol: as §1

P. aeruginosa NRZ-03961 = format: cell-based, Pseudomonas aeruginosa; details: NRZ-03961
Protocol: as §1

P. aeruginosa PAO1 = format: cell-based, Pseudomonas aeruginosa; details: PAO1
Protocol: as §1

Structure (SMILES) | Minimum inhibitory concentration (MIC) (E. coli ATCC 25922 MCR-1) | Minimum inhibitory concentration (MIC) (E. coli MCR-1) | Minimum inhibitory concentration (MIC) (A. baumannii MDR) | Minimum inhibitory concentration (MIC) [1] | Minimum inhibitory concentration (MIC) [2] | Minimum inhibitory concentration (MIC) [3] | Minimum inhibitory concentration (MIC) [4] | Minimum inhibitory concentration (MIC) (E. coli EQAS MCR-2) | Minimum inhibitory concentration (MIC) (K. pneumoniae 2048) | Minimum inhibitory concentration (MIC) (K. pneumoniae ATCC 11228) | Minimum inhibitory concentration (MIC) (K. pneumoniae ATCC 13883) | Minimum inhibitory concentration (MIC) (K. pneumoniae JS-123) | Minimum inhibitory concentration (MIC) (A. baumannii 2018-006) | Minimum inhibitory concentration (MIC) (A. baumannii ATCC 17978) | Minimum inhibitory concentration (MIC) (P. aeruginosa M-120) | Minimum inhibitory concentration (MIC) (P. aeruginosa NRZ-03961) | Minimum inhibitory concentration (MIC) (P. aeruginosa PAO1)
CC[C@H](C)[C@@H]1NC(=O)[C@@H](NC(=O)[C@H](Cc2c[nH]c3ccccc23)NC(=O)[C@@H](CCCN)NC(=O)CNC(=O)[C@H](CCCN)NC(=O)[C@@H](CCCN)NC(=O)[C@@H](Cc2c[nH]c3ccccc23)NC(=O)[C@@H](Cc2ccc(O)cc2)NC(=O)[C@@H](CO)NC(=O)CCCCCC(C)C)COC(=O)CNC(=O)CNC(=O)[C@H](CC(N)=O)NC1=O [Ser9-Laterocidine] ({Octanoyl(7-Me)}-[dS][dY][dW][dOrn][Orn]G[dOrn]WSINGG; ester 9-C) | 0.5 µg/mL (≈ 0.314 µM) | 0.5 µg/mL (≈ 0.314 µM) | 2 µg/mL (≈ 1.26 µM) |  |  |  |  |  |  |  |  |  |  |  |  |  | 
CCC(C)CCC(=O)N[C@H](CC(N)=O)C(=O)N[C@H](Cc1ccc(O)cc1)C(=O)N[C@H](Cc1c[nH]c2ccccc12)C(=O)N[C@H](CCCN)C(=O)N[C@@H](CCCN)C(=O)NCC(=O)N[C@H](CCCN)C(=O)N[C@@H](Cc1c[nH]c2ccccc12)C(=O)N[C@H]1COC(=O)[C@H](CO)NC(=O)CNC(=O)[C@H]([C@@H](C)CC)NC1=O (single isomer, unassigned) [Ser9-Brevicidine] | 4 µg/mL (≈ 2.66 µM) | 2 µg/mL (≈ 1.33 µM) | 1 to 2 µg/mL | 0.5 to 1 µg/mL | 4 µg/mL (≈ 2.66 µM) | 1 µg/mL (≈ 0.664 µM) | >64 µg/mL | 4 to 8 µg/mL | 4 µg/mL (≈ 2.66 µM) | 2 µg/mL (≈ 1.33 µM) | 2 µg/mL (≈ 1.33 µM) | 2 µg/mL (≈ 1.33 µM) | 2 µg/mL (≈ 1.33 µM) | 2 µg/mL (≈ 1.33 µM) | 2 µg/mL (≈ 1.33 µM) | 4 µg/mL (≈ 2.66 µM) | 2 to 4 µg/mL
CC[C@@H](C)[C@H]1NC(=O)[C@H](NC(=O)[C@@H](Cc2c[nH]c3ccccc23)NC(=O)[C@H](CCCN)NC(=O)CNC(=O)[C@@H](CCCN)NC(=O)[C@H](CCCN)NC(=O)[C@H](Cc2c[nH]c3ccccc23)NC(=O)[C@H](Cc2ccc(O)cc2)NC(=O)[C@H](CO)NC(=O)CCCCCC(C)C)[C@H](C)OC(=O)CNC(=O)CNC(=O)[C@@H](CC(N)=O)NC1=O [ent- Laterocidine] ({Octanoyl(7-Me)}-SYW[Orn][dOrn]G[Orn][dW][dT][dI][dN]GG; ester 9-C) | 8 to 16 µg/mL | 8 to 16 µg/mL | 4 to 8 µg/mL |  |  |  |  | 8 to 16 µg/mL |  |  |  |  |  |  |  |  | 
CCC(C)CCC(=O)N[C@H](CO)C(=O)N[C@H](Cc1ccc(O)cc1)C(=O)N[C@H](Cc1c[nH]c2ccccc12)C(=O)N[C@H](CCCN)C(=O)N[C@@H](CCCN)C(=O)NCC(=O)N[C@H](CCCN)C(=O)N[C@@H](Cc1c[nH]c2ccccc12)C(=O)N[C@H]1CNC(=O)CNC(=O)[C@H](CO)NC(=O)CNC(=O)[C@H]([C@@H](C)CC)NC1=O (stereo partly shown) [Dap9-Relacidamide A] ({Hexanoyl(4ξ-Me)}-[dS][dY][dW][dOrn][Orn]G[dOrn]W[Dap]IGSG; lactam 9-C) |  |  |  | 1 to 2 µg/mL | 2 µg/mL (≈ 1.3 µM) | 0.5 to 1 µg/mL | >64 µg/mL |  | 2 µg/mL (≈ 1.3 µM) | 2 µg/mL (≈ 1.3 µM) | 2 µg/mL (≈ 1.3 µM) | 1 µg/mL (≈ 0.652 µM) | 2 to 4 µg/mL | 4 µg/mL (≈ 2.61 µM) | 1 to 2 µg/mL | 2 to 4 µg/mL | 1 to 2 µg/mL
